{"source": "patent US11597726B2", "about": "(Certego Therapeutics Inc., priority 2020, dated 2023)", "key": {"mouse": {"test_system": "mouse", "experiment": "Forced swim test", "assay_type": "in vivo", "settings": "single dose 10 mg/kg, 1 hour and 24 hours after drug delivery, 6 min forced swim", "description": "The forced swim test is a frequently used behavioral protocol with a well-established therapeutic predictability for a broad range of antidepressants including ketamine (Porsolt et al. 1977; Cryan and Mombereau 2004; Cryan et al. 2005; Lucki et al. 2001). In this test the mouse is put in a beaker filled with water and the time spent struggling, swimming and floating is measured, with the time spent floating—when the mouse stops struggling to swim—being used as a behavioral correlate of depression."}, "c-fos": {"test_system": "c-fos", "experiment": "Pharmacomapping: whole-brain drug-evoked c-fos activation", "settings": "for brain activation of each drug alone: gaboxadol at 3 mg/kg alone, ketamine at 6 mg/kg alone; for brain activation compared with non-deuterated gaboxadol at the same dose: 2.5 hour post administration; for brain activation compared with gaboxadol: BSTrh", "experimental": "(A) Mice are treated with a drug or vehicle solution for the control group using either intraperitoneal (i.p.), per oral (p.o.). subcutaneous (s.c.), intramuscular (i.m.) or intravenous (i.v.) delivery. […] (C) After that period the mice are killed, the c-fos induction is visualized using whole-brain immunostaining, the brains are chemically cleared and finally imaged by light-sheet fluorescent microscopy (LSFM). (D) The whole-brain scans are represented as serial section datasets typically with XYZ resolution of 4×4×5 microns. (E) The c-fos+ cells are detected in these datasets using custom trained machine learning algorithms. (F) The whole-brain distribution of the detected c-fos+ cells is represented in 3D as a spatial map of centroid points in the 3D space of the mouse brain. (G) This 3D map distribution is registered to a reference mouse brain and spatially voxelized using overlapping 150-micron sphere voxels.\nAt 2.5 hour post administration, the mice were euthanized and brains were immediately preserved by 4% paraformaldehyde (PFA)."}, "[1]": {"settings": "cited from earlier work"}, "mice": {"test_system": "mice", "experiment": "Onset of sedation (immobility) in the open field test (OFT)", "assay_type": "in vivo"}, "rodent": {"test_system": "rodent", "experiment": "d-amphetamine-induced hyperlocomotion (rodent model of mania)", "assay_type": "in vivo", "settings": "gaboxadol at 3 mg/kg alone"}, "[2]": {"settings": "20 mg dose; cited from earlier work"}, "cytochrome P450s (CYPs)": {"test_system": "cytochrome P450s (CYPs)", "settings": "cited from earlier work"}, "[3]": {"test_system": "patients with severe major depressive disorder", "settings": "490 patients; daily oral escitalopram 20 mg and gaboxadol 5 mg or 10 mg; cited from earlier work"}, "insomnia": {"test_system": "insomnia", "settings": "three-month efficacy study; cited from earlier work"}, "[4]": {"test_system": "combined delta, theta and alpha activity", "settings": "160 minutes after the first treatment; cited from earlier work"}, "[5]": {"settings": "human doses equivalent to the mouse 6 mg/kg dose; cited from earlier work"}, "GABAA receptor": {"test_system": "GABAA receptor", "settings": "in vivo; cited from earlier work"}}, "note": "“Also recorded” adds a separate entry of the source. Where two headings read alike, the source gives them in different places.", "data": [{"smiles": "CNC1(c2ccccc2Cl)CCCCC1=O", "note": "(stereo not shown) [ketamine]", "values": [{"measurement": "time spent floating (immobility) compared to vehicle treated control group", "setting": "mouse", "result": "significantly reduced the time spent in floating; also recorded: significantly decreases the time the drug treated mice spent floating"}, {"measurement": "whole-brain activation pattern", "setting": "c-fos; acute single dose 10 mg/kg, many cortical areas and midline thalamic nuclei", "result": "very robust and broad activation"}, {"measurement": "whole-brain activation pattern", "setting": "c-fos; acute single dose 5 and 100 mg/kg", "result": "modest activation"}, {"measurement": "brain activation of each drug alone", "setting": "c-fos", "result": "neither gaboxadol at 3 mg/kg nor ketamine at 6 mg/kg alone evoked any brain activation detectable"}]}, {"smiles": "[Li]", "note": "[lithium]", "values": [{"measurement": "typical therapeutic concentration in the serum", "setting": "[1]; acute treatment of manic episodes", "result": "0.6 to 1.2", "unit": "mmol/L"}, {"measurement": "serum concentration associated with mild toxicity", "setting": "[1]; in vivo", "result": "1200 to 2500", "unit": "µM"}, {"measurement": "serum concentration that can be life-threatening", "setting": "[1]; in vivo", "result": "greater than 3.5 mmol/L"}]}, {"smiles": "[2H]C1([2H])NCCc2c1o[nH]c2=O", "note": "[d2-gaboxadol 7,7, 4,5,6,7-tetrahydroisoxazolo[5,4-c]pyridin-3(2H)-one-7,7-d2]", "values": [{"measurement": "onset of sedation (start of immobility)", "setting": "mice", "result": 13, "unit": "min"}, {"measurement": "onset of sedation (start of immobility)", "setting": "mice; listed as d2-gaboxadol", "result": "13 to 14", "unit": "min"}, {"measurement": "brain activation compared with non-deuterated gaboxadol at the same dose", "setting": "c-fos; 6 mg/kg i.p., ORBm, ILA, ACAd, AI, GU, VISC, CLA, LSr, BSTa", "result": "considerably higher brain activation than non-deuterated gaboxadol"}, {"measurement": "brain activation compared with non-deuterated gaboxadol at the same dose", "setting": "c-fos; 6 mg/kg i.p., ORBm, ILA, ACAd, AI, GU, VISC, CLA, LSr, BSTa, listed as d2-gaboxadol", "result": "considerably stronger"}, {"measurement": "enhancement of synergies with lithium compared with non-deuterated gaboxadol", "setting": "c-fos; 6 mg/kg with lithium at 150 mg/kg (FIG. 38)", "result": "significantly stronger enhancement of synergies with lithium than is found with non-deuterated gaboxadol"}, {"measurement": "level of brain activation compared with the same doses of non-deuterated gaboxadol", "setting": "c-fos; 6, 10 and in some cases 20 mg/kg, certain brain areas (e.g. ILA and CP)", "result": "higher than the level of activation obtained by the same doses of non-deuterated gaboxadol"}, {"measurement": "dose of non-deuterated gaboxadol with equivalent/comparable brain activation", "setting": "c-fos; d2-gaboxadol 7,7 at 6 mg/kg, mice, listed as ring carbon deuterated gaboxadol (7,7-d2), 6 mg/kg", "result": "10 to 20", "unit": "mg/kg"}]}, {"smiles": "[2H]C1([2H])NC([2H])([2H])C([2H])([2H])c2c1o[nH]c2=O", "note": "[d6-gaboxadol, 4,5,6,7-tetrahydroisoxazolo[5,4-c]pyridin-3(2H)-one-4,4,5,5,7,7-d6]", "values": [{"measurement": "onset of sedation (start of immobility)", "setting": "mice", "result": 11, "unit": "min"}, {"measurement": "brain activation compared with gaboxadol", "setting": "c-fos; 6 mg per kg, GU, VISC, AI (AId, AIp), TEa, CLA, BSTa, LC", "result": "higher brain activation than gaboxadol"}, {"measurement": "brain activation compared with gaboxadol", "setting": "c-fos; 10 mg per kg, ACA (ACAd, ACAv), ILA, GU, VISC, AI, TEa, CLA, BSTa", "result": "more efficacious in evoking brain activation than gaboxadol"}, {"measurement": "brain activation compared with gaboxadol", "setting": "c-fos; 20 mg per kg, BSTa, BSTov, BSTp, LC, CP, STRv (ACB, OT)", "result": "higher brain activation than gaboxadol"}, {"measurement": "brain activation compared with non-deuterated gaboxadol at the same dose", "setting": "c-fos; 6, 10 and 20 mg per kg i.p.", "result": "considerably higher brain activation than non-deuterated gaboxadol"}]}, {"smiles": "Oc1noc2c1CCNC2", "note": "[gaboxadol, 4,5,6,7-tetrahydroisoxazolo (5,4-c) pyridin-3-ol]", "values": [{"measurement": "onset of sedation (start of immobility)", "setting": "mice", "result": 15, "unit": "min"}, {"measurement": "time spent floating (immobility) compared to vehicle treated control group", "setting": "mouse", "result": "significantly reduced the time spent in floating; also recorded: nearly identical behavioral effect as the ketamine group"}, {"measurement": "effect on amphetamine-induced hyperlocomotion", "setting": "rodent", "result": "only modestly"}, {"measurement": "AUC0-∞", "setting": "[2]", "result": "about 900 ng*hr/ml"}, {"measurement": "Cmax", "setting": "[2]", "result": 900, "unit": "ng/mL"}, {"measurement": "plasma Tmax", "setting": "[2]", "result": "≤ 1.5", "unit": "h"}, {"measurement": "metabolism by CYPs", "setting": "cytochrome P450s (CYPs)", "result": "not metabolized by CYPs"}, {"measurement": "benefit of oral gaboxadol added to escitalopram", "setting": "[3]", "result": "no additional benefit relative to escitalopram alone"}, {"measurement": "effects in sleep onset and sleep maintenance", "setting": "insomnia", "result": "failed to show significant effects in sleep onset and sleep maintenance"}, {"measurement": "whole head MEG planar gradiometer increase in combined delta, theta and alpha activity", "setting": "[4]", "result": "≥ +3"}, {"measurement": "adverse side-effects in clinical trials", "setting": "[5]", "result": "no significant adverse side-effects"}, {"measurement": "GABAA receptor saturation level (blood level)", "setting": "GABAA receptor", "result": "over 900 ng/ml"}, {"measurement": "whole-brain activation pattern compared with ketamine", "setting": "c-fos; gaboxadol 10 mg/kg vs ketamine 10 mg/kg", "result": "very similar brain activation as ketamine"}, {"measurement": "brain activation of each drug alone", "setting": "c-fos", "result": "neither gaboxadol at 3 mg/kg nor ketamine at 6 mg/kg alone evoked any brain activation detectable"}, {"measurement": "brain activation of each compound alone", "setting": "c-fos; lithium at 150 mg/kg alone, gaboxadol at 6 mg/kg alone", "result": "moderate brain activation on their own"}]}]}
